{
  "source": "patent US20250115943A1",
  "about": "“SYSTEM AND METHOD FOR ANTIMICROBIAL SUSCEPTIBILITY TESTING” (priority 2023, published 2025)",
  "key": {"E. coli": {"test_system": "E. coli", "conditions": "stated with the CLSI QC range in FIG. 22 legend; cited from earlier work"}, "E. coli ATCC 25922 [1]": {"test_system": "E. coli ATCC 25922", "experiment": "reference broth microdilution (rBMD)", "assay_type": "cell-based", "conditions": "Escherichia coli, ATCC25922, Table 7, geometric mean MIC rounded to nearest 2-fold dilution, n = 3", "description": "(§1) Following optimization of the BLAST assay, two other tests were performed in which 12 antibiotics (covering different classes) and 8 bacterial strains (Gram-positive and Gram-negative) were assayed using the same method as described above. Different bacterial strains were tested against different antibiotics and for each pair tested, the BLAST MIC value was compared to the CLSI QC range where available, or to the reference broth microdilution (rBMD) MIC which was determined in parallel with the BLAST assay following the CLSI protocols (see references [9]).\nThe inoculated urine cultures were incubated overnight at 35+2° C. Each urine culture was centrifuged, and the sediment used to prepare the BLAST inoculum of 5.0×10^5 CFU/mL to start the assay as described in the protocols section. […] The spiked urine samples were tested in parallel with isolates and the resultant BLAST MIC values were compared. In addition to the BLAST test, all the samples were also tested using the reference broth microdilution (rBMD) method and the MIC values were compared."}, "P. aeruginosa ATCC 27853 [2]": {"test_system": "P. aeruginosa ATCC 27853", "experiment": "CytoSPAR BLAST antibiotic susceptibility test", "assay_type": "cell-based", "description": "(§2) The disclosed technology, which is referred to as the CytoSPAR BLAST (Bacteria Labeling Antibiotic Susceptibility Test) system, is used to quantitatively assess bacterial minimal inhibitory concentration of antibiotics for in vitro susceptibility testing. Used as an aid in diagnosis for clinicians in determining potential treatment options for patients suspected of having a microbial infection, BLAST is intended to determine susceptibility of microorganisms to the listed antibiotics (or other antimicrobials) according to manufacturer's standards. The system is intended for use with clinical isolates from liquid culture and colonies grown on agar (solid medium) or directly from urine samples. Certain implementations of BLAST determine antibiotic susceptibility for a wide range of bacteria obtained from various types of patient samples, including samples from individuals suffering from urinary tract infections. The disclosed technology includes a high-throughput assay that directly detects bacterial susceptibility to a library of frequently used antibiotics and covers both Gram-negative and Gram-positive bacteria.\n(§3) The test incorporates a non-canonical amino acid (ncAA) into newly produced proteins. The incorporated ncAA includes a reactive group which allows a specific modification and detection of the living bacteria. The assay involves bacterial incorporation of the ncAA, a chemical reaction between a reactive group and a fluorophore-tagged ligand, and detection of the newly fluorescent-tagged bacteria using a fluorescent plate reader or functionally similar device. The ncAA is added to bacterial growth media and is incorporated into newly synthesized bacterial proteins. The reactive groups on the ncAA are not naturally found in bacteria and act as a specific reactive group for bacteria undergoing active protein synthesis. […] The entire process is performed in a microtiter filter plate for high-throughput scale-up. Alternatively, a normal 96-well plate can also be used in which case centrifugation is used to wash the plate instead of filtration.\n(§4) In an example embodiment, bacterial samples are first diluted and incubated in acclimatization media. After treatment with one or more antimicrobials, the ncAA is added and is taken up by living bacteria during protein biosynthesis in a process called labeling. […] The Click-Chemistry reaction between the alkyne group of the ncAA and the azide group of the fluorophore-tagged ligand requires the presence of copper in the reduced state-copper (I). In other implementations, the functional groups of the click chemistry reaction can be changed so that the ncAA has the azide group and the dye has the alkyne group. […] Other reducing agents may be used in the BLAST assay, for example, aldoses (sugars) including glyceraldehyde, glucose, and ribose to replace sodium ascorbate. Likewise, alternate chelators may be used (e.g., histidine in place of BTTAA). In some implementations, metal-free click chemistry reactions are performed without using copper.\n(§5) Using the BLAST system, tests can be performed on isolates or direct urine samples. Isolates may be from urine, blood, or other body fluids. Isolated bacteria may be either Gram-positive or Gram-negative. In an example implementation, living bacterial samples in acclimatization media (Buffer A) are distributed in a microtiter filter plate, wherein certain predetermined wells include antibiotics of interest at different concentrations. These antibiotics are arrayed with increasing concentrations in adjacent wells so that the bacterial response can be measured against each specific concentration. The response is measured quantitatively, and a value that corresponds to the ability of the bacteria to metabolize and grow is measured."}, "K. pneumoniae LSI 4552 [3]": {"test_system": "K. pneumoniae LSI 4552", "experiment": "CytoSPAR BLAST antibiotic susceptibility test", "assay_type": "cell-based", "description": "as §2, §3, §4, §5"}, "E. coli ATCC 25922 [4]": {"test_system": "E. coli ATCC 25922", "experiment": "CytoSPAR BLAST antibiotic susceptibility test", "assay_type": "cell-based", "conditions": "for MIC: Escherichia coli", "description": "as §2, §3, §4, §5"}, "E. coli LSI 770": {"test_system": "E. coli LSI 770", "experiment": "CytoSPAR BLAST antibiotic susceptibility test", "assay_type": "cell-based", "conditions": "E. coli LSI 770; for MIC: Escherichia coli, LSI770", "description": "as §2, §3, §4, §5"}, "P. mirabilis LSI 4933 [5]": {"test_system": "P. mirabilis LSI 4933", "experiment": "CytoSPAR BLAST antibiotic susceptibility test", "assay_type": "cell-based", "description": "as §2, §3, §4, §5"}, "P. mirabilis LSI 4698": {"test_system": "P. mirabilis LSI 4698", "experiment": "CytoSPAR BLAST antibiotic susceptibility test", "assay_type": "cell-based", "description": "as §2, §3, §4, §5"}, "K. pneumoniae LSI CT1045 [6]": {"test_system": "K. pneumoniae LSI CT1045", "experiment": "CytoSPAR BLAST antibiotic susceptibility test", "assay_type": "cell-based", "description": "as §2, §3, §4, §5"}, "S. aureus ATCC 29213 [7]": {"test_system": "S. aureus ATCC 29213", "experiment": "CytoSPAR BLAST antibiotic susceptibility test", "assay_type": "cell-based", "conditions": "for MIC: Staphylococcus aureus", "description": "as §2, §3, §4, §5"}, "K. pneumoniae LSI 4552 [8]": {"test_system": "K. pneumoniae LSI 4552", "experiment": "reference broth microdilution (rBMD)", "assay_type": "cell-based", "conditions": "Klebsiella pneumoniae, LSI4552", "description": "as §1"}, "P. mirabilis LSI 4933 [9]": {"test_system": "P. mirabilis LSI 4933", "experiment": "reference broth microdilution (rBMD)", "assay_type": "cell-based", "conditions": "Proteus mirabilis, LSI4933", "description": "as §1"}, "K. pneumoniae LSI CT1045 [10]": {"test_system": "K. pneumoniae LSI CT1045", "experiment": "reference broth microdilution (rBMD)", "assay_type": "cell-based", "conditions": "Klebsiella pneumoniae, LSICT1045", "description": "as §1"}, "P. aeruginosa ATCC 27853 [11]": {"test_system": "P. aeruginosa ATCC 27853", "conditions": "CLSI M100-Ed34E; cited from earlier work"}, "S. aureus ATCC 29213 [12]": {"test_system": "S. aureus ATCC 29213", "conditions": "CLSI M100-Ed34E, cited from earlier work"}, "[13]": {"conditions": "susceptible, intermediate, resistant category"}},
  "note": "Where two headings read alike, the source gives them in different places.",
  "data": [
    {"molecule": "C[C@H]1COc2c(N3CCN(C)CC3)c(F)cc3c(=O)c(C(=O)O)cn1c23", "note": "[Levofloxacin, levofloxacin]", "values": [
      {"measurement": "breakpoint", "setting": "E. coli", "result": 0.5, "unit": "µg/mL"},
      {"measurement": "MIC", "setting": "E. coli ATCC 25922 [1]", "result": 0.02, "unit": "µg/mL"},
      {"measurement": "MIC", "setting": "P. aeruginosa ATCC 27853 [2]; Pseudomonas aeruginosa, ATCC27853, Table 6, optimized BLAST", "result": 8, "unit": "µg/mL"},
      {"measurement": "S, I, R", "setting": "P. aeruginosa ATCC 27853 [2]; [13]", "result": "Susceptible"},
      {"measurement": "MIC", "setting": "K. pneumoniae LSI 4552 [3]; Klebsiella pneumoniae, LSI4552, Table 7", "result": 0.06, "unit": "µg/mL"},
      {"measurement": "S, I, R", "setting": "K. pneumoniae LSI 4552 [3]; [13]", "result": "Susceptible"},
      {"measurement": "MIC", "setting": "E. coli ATCC 25922 [4]; ATCC25922, Table 7, read-out: MIC BLAST", "result": 0.01, "unit": "µg/mL"},
      {"measurement": "MIC", "setting": "E. coli ATCC 25922 [4]; ATCC25922, read-out: MIC BLAST Isolates, Table 8, isolates, 5 × 10^5 CFU/mL", "result": 0.01, "unit": "µg/mL"},
      {"measurement": "MIC", "setting": "E. coli ATCC 25922 [4]; ATCC25922, read-out: MIC BLAST Spiked Urine, Table 8, spiked urine sample, 5 × 10^5 CFU/mL", "result": 0.01, "unit": "µg/mL"},
      {"measurement": "S, I, R", "setting": "E. coli ATCC 25922 [4]; [13]", "result": "Susceptible"},
      {"measurement": "S, I, R", "setting": "E. coli LSI 770; [13]", "result": "Resistant"},
      {"measurement": "MIC", "setting": "E. coli LSI 770; Table 7, read-out: MIC BLAST", "result": 36, "unit": "µg/mL"},
      {"measurement": "MIC", "setting": "E. coli LSI 770; Table 8, isolates, 5 × 10^5 CFU/mL, read-out: MIC BLAST Isolates", "result": 35.6, "unit": "µg/mL"},
      {"measurement": "MIC", "setting": "E. coli LSI 770; Table 8, spiked urine sample, 5 × 10^5 CFU/mL, read-out: MIC BLAST Spiked Urine", "result": 35.6, "unit": "µg/mL"},
      {"measurement": "MIC", "setting": "P. mirabilis LSI 4933 [5]; Proteus mirabilis, LSI4933, Table 7", "result": 1.1, "unit": "µg/mL"},
      {"measurement": "S, I, R", "setting": "P. mirabilis LSI 4933 [5]; [13]", "result": "Susceptible"},
      {"measurement": "MIC", "setting": "P. mirabilis LSI 4698; Proteus mirabilis, LSI4698, Table 7", "result": 8.9, "unit": "µg/mL"},
      {"measurement": "S, I, R", "setting": "P. mirabilis LSI 4698; [13]", "result": "Susceptible"},
      {"measurement": "MIC", "setting": "K. pneumoniae LSI CT1045 [6]; Klebsiella pneumoniae, LSICT1045, Table 7", "result": "> 71", "unit": "µg/mL"},
      {"measurement": "S, I, R", "setting": "K. pneumoniae LSI CT1045 [6]; [13]", "result": "Resistant"},
      {"measurement": "S, I, R", "setting": "S. aureus ATCC 29213 [7]; S. aureus ATCC 29213, susceptible, intermediate, resistant category", "result": "Susceptible"},
      {"measurement": "MIC", "setting": "S. aureus ATCC 29213 [7]; ATCC29213, S. aureus ATCC 29213, 5×10^6 CFUs/mL, cutoff 0.8, FIGS. 19-21, read-out: BLAST MIC", "result": 0.125, "unit": "µg/mL"},
      {"measurement": "MIC", "setting": "S. aureus ATCC 29213 [7]; ATCC29213, Table 7, S. aureus ATCC 29213, read-out: MIC BLAST", "result": 0.28, "unit": "µg/mL"},
      {"measurement": "MIC", "setting": "S. aureus ATCC 29213 [7]; ATCC29213, Table 8, S. aureus ATCC 29213, isolates, 5 × 10^5 CFU/mL, read-out: MIC BLAST Isolates", "result": 0.28, "unit": "µg/mL"},
      {"measurement": "MIC", "setting": "S. aureus ATCC 29213 [7]; ATCC29213, Table 8, S. aureus ATCC 29213, spiked urine sample, 5 × 10^5 CFU/mL, read-out: MIC BLAST Spiked Urine", "result": 0.28, "unit": "µg/mL"},
      {"measurement": "MIC", "setting": "K. pneumoniae LSI 4552 [8]", "result": 0.12, "unit": "µg/mL"},
      {"measurement": "MIC", "setting": "P. mirabilis LSI 4933 [9]", "result": 1, "unit": "µg/mL"},
      {"measurement": "MIC", "setting": "K. pneumoniae LSI CT1045 [10]", "result": 128, "unit": "µg/mL"},
      {"measurement": "MIC CLSI QC Range", "setting": "P. aeruginosa ATCC 27853 [11]", "result": "0.5 to 4.0", "unit": "µg/mL"},
      {"measurement": "MIC CLSI QC Range", "setting": "S. aureus ATCC 29213 [12]; listed as levofloxacin", "result": "0.063 to 0.5", "unit": "µg/mL"},
      {"measurement": "MIC CLSI QC Range", "setting": "S. aureus ATCC 29213 [12]", "result": "0.06 to 0.5", "unit": "µg/mL"}
    ]}
  ]
}
